The numbers were not newly measured in patent US20220323409A1, “MODIFIED RELEASE FORMULATIONS AND USES THEREOF” (SUNOVION PHARMACEUTICALS INC., priority 2019, published 2022), which cites them from elsewhere.

The structures appear in SMILES notation.

For series [1] the following is noted: 400-800 mg/day dosage range, product label.
For series [2] the following is noted: Taubel et al. 2017.

Take `CCN1CCCC1CNC(=O)c1cc(S(=O)(=O)CC)c(N)cc1OC` (racemic) [Racemic (50:50), 4-amino-N-[(1-ethylpyrrolidin-2-yl)methyl]-5-ethylsulfonyl-2-methoxy-benzamide]: in series [1], the “frequency of movement related adverse events (tremor, rigidity, hypokinesia, hypersalivation, akathisia, dyskinesia)” value is “very common”. Further, in series [2], the “QT interval prolongation versus plasma concentration” value is given as “substantially linear increase of prolongation with plasma concentration”.
